The record followed here is ChEMBL document CHEMBL1137364, “Synthesis and structure-activity relationships of uracil nucleotide derivatives and analogues as agonists at human P2Y2, P2Y4, and P2Y6 receptors” (J Med Chem, 2006).

For assay [1], the target named is T1, P2Y purinoceptor 4 (Homo sapiens, UniProt P51582). Kind of assay: Agonist activity at human P2Y4 receptor expressed in 1321N1 cells assessed as IP accumulation by SPA. The format is functional, cell-based.
Target sequence in this assay (P51582 whole entry): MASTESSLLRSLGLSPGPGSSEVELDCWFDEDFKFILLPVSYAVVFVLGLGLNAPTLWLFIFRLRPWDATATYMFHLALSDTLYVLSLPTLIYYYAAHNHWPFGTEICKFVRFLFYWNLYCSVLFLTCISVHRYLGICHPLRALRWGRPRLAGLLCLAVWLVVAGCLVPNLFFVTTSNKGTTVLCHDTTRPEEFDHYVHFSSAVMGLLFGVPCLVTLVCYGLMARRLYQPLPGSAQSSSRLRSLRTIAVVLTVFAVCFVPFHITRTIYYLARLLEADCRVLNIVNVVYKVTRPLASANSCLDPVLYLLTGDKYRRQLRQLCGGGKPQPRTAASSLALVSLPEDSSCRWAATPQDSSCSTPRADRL
Assay [2] concerns the target T1, P2Y purinoceptor 4. Kind of assay: Agonist activity at human P2Y4 receptor expressed in 1321N1 cells assessed as IP accumulation by SPA at 100 uM. Format: functional, cell-based.
Target sequence in this assay (P51582 whole entry): as above
Assay [3] deals with T2, P2Y purinoceptor 2 (Homo sapiens, UniProt P41231). The experiment in a line: Agonist activity at human P2Y2 receptor expressed in 1321N1 cells assessed as IP accumulation by SPA. Format: functional, cell-based.
Assay [4] has as its target T3, P2Y purinoceptor 6 (Homo sapiens, UniProt Q15077). The experiment in a line: Agonist activity at human P2Y6 receptor expressed in 1321N1 cells assessed as IP accumulation by SPA. Format: functional, cell-based.
Target sequence in this assay (Q15077 whole entry): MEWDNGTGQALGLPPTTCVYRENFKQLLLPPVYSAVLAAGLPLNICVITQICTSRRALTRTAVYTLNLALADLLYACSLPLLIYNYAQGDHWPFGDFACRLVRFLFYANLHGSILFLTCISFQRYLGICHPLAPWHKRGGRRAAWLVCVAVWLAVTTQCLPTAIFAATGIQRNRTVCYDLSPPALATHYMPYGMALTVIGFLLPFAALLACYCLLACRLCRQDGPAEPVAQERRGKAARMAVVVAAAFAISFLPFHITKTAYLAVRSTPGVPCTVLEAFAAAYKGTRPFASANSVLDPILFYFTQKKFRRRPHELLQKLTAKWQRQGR
Assay [5] addresses T3, P2Y purinoceptor 6. The experiment in a line: Agonist activity at human P2Y6 receptor expressed in 1321N1 cells assessed as IP accumulation by SPA at 100 uM. Format: functional, cell-based.
Target sequence in this assay (Q15077 whole entry): as above
Assay [6] has as its target T2, P2Y purinoceptor 2. The experiment in a line: Agonist activity at human P2Y2 receptor expressed in 1321N1 cells assessed as IP accumulation by SPA at 100 uM. The format is functional, cell-based.
In assay [7] the target is T2, P2Y purinoceptor 2. The experiment in a line: Agonist activity at human P2Y2 receptor expressed in 1321N1 cells assessed as IP accumulation by SPA at 1 uM. Format: functional, cell-based.
For assay [8], the target named is T3, P2Y purinoceptor 6. The experiment in a line: Agonist activity at human P2Y6 receptor expressed in 1321N1 cells assessed as IP accumulation by SPA at 1 uM. Format: functional, cell-based.
Target sequence in this assay (Q15077 whole entry): as above
Assay [9] concerns the target T3, P2Y purinoceptor 6. Kind of assay: Antagonist activity at human P2Y6 receptor assessed as inhibition of UDP-induced IP accumulation at 100 uM.
Target sequence in this assay (Q15077 whole entry, looked up): as the sequence (Q15077 whole entry) above
Assay [10] deals with T2, P2Y purinoceptor 2. Kind of assay: Antagonist activity at human P2Y2 receptor assessed as inhibition of UTP-induced IP accumulation at 100 uM. The format is functional.
For assay [11], the target named is T1, P2Y purinoceptor 4. The experiment in a line: Antagonist activity at human P2Y4 receptor assessed as inhibition of UTP-induced IP accumulation at 100 uM.
Target sequence in this assay (P51582 whole entry, looked up): as the sequence (P51582 whole entry) above

pEC50: −log10 of the molar value. Activity calls are given as the source filed them. The calls are words filed in the database; no cut-off is given here.

T2 sequence (P41231 whole entry): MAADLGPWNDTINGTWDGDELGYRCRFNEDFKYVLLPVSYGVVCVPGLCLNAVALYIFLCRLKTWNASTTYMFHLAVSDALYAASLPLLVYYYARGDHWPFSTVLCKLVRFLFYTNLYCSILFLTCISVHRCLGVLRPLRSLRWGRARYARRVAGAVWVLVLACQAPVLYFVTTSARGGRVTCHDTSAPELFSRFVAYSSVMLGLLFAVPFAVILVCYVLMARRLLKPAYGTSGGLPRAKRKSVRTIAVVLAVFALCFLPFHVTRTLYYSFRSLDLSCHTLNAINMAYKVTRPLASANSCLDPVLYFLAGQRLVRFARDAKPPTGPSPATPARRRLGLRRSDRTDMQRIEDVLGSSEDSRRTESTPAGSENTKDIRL

In the case of `O=c1cc(O)n([C@@H]2O[C@H](COP(=O)(O)O)[C@@H](O)[C@H]2O)c(=O)[nH]1`, the negative-log EC50 (pEC50) on P2Y purinoceptor 4 [1], at P2Y purinoceptor 2 [3] and at P2Y purinoceptor 6 [4] was under 4.00 throughout. Further, the Activity on P2Y purinoceptor 4 [2] is 11%; on P2Y purinoceptor 6 [5], 0%; on P2Y purinoceptor 2 [6], 11%.

Turning to `CCCc1cc(=O)n([C@@H]2O[C@H](COP(=O)(O)O)[C@@H](O)[C@H]2O)c(=O)[nH]1`, the pEC50 on P2Y purinoceptor 4 [1], at P2Y purinoceptor 2 [3] and at P2Y purinoceptor 6 [4] was under 4.00 in each case. In addition, the Activity on P2Y purinoceptor 4 [2] was determined as 5%; at P2Y purinoceptor 6 [5] it was 26%; at P2Y purinoceptor 2 [6] it was 9%.

Take `CCCc1cc(=O)n([C@@H]2O[C@H](COP(=O)(O)OP(=O)(O)OP(=O)(O)O)[C@H]3OP(=O)(O)O[C@H]32)c(=O)[nH]1`: the Activity at P2Y purinoceptor 2 [7] stood at 24%; on P2Y purinoceptor 4 [2], 1%; on P2Y purinoceptor 6 [5], 8%; at P2Y purinoceptor 2 [6], 69%. The figures for the negative-log EC50 (pEC50) on P2Y purinoceptor 4 [1], on P2Y purinoceptor 2 [3] and on P2Y purinoceptor 6 [4] were under 4.00, under 6.00 and under 4.00, respectively.

Turning to `Cn1c(=O)ccn([C@@H]2O[C@H](COP(=O)(O)O)[C@@H](O)[C@H]2O)c1=O`, the Activity is 0% at P2Y purinoceptor 6 [8]; 3% on P2Y purinoceptor 2 [7]; 3% on P2Y purinoceptor 4 [2]; 51% on P2Y purinoceptor 6 [5]; 30% at P2Y purinoceptor 2 [6]. Besides, the pEC50 is under 4.00 on P2Y purinoceptor 4 [1], under 4.00 on P2Y purinoceptor 2 [3] and at most 4.00 at P2Y purinoceptor 6 [4].

Take `O=c1ccn([C@@H]2O[C@H](COP(=O)(O)OP(=O)(O)O)[C@@H](O)[C@H]2O)c(=O)[nH]1` [URIDINE_DIPHOSPHATE]: at P2Y purinoceptor 6 [4], the pEC50 was 7.38.

As to `O=c1[nH]c(=O)n([C@@H]2O[C@H](COP(=O)(O)OP(=O)(O)C(Cl)(Cl)P(=O)(O)O)[C@@H](O)[C@H]2O)cc1Br`, the results for the negative-log EC50 (pEC50) on P2Y purinoceptor 4 [1], on P2Y purinoceptor 2 [3] and at P2Y purinoceptor 6 [4] were 5.40, 6.45 and 6.92, respectively.

As to `O=c1ccn([C@@H]2O[C@H](COP(=O)(O)OP(=O)(O)OP(=O)(O)O)[C@@H](O)[C@H]2O)c(=O)[nH]1` [URIDINE TRIPHOSPHATE], the pEC50 at P2Y purinoceptor 4 [1] was 7.06; at P2Y purinoceptor 2 [3], 7.37.

Consider `O=C(Cn1c(=O)ccn([C@@H]2O[C@H](COP(=O)(O)OP(=O)(O)OP(=O)(O)O)[C@@H](O)[C@H]2OP(=O)(O)O)c1=O)c1ccccc1`, for which the Activity at P2Y purinoceptor 6 [8] came to 0%; at P2Y purinoceptor 2 [7] it was 54%; at P2Y purinoceptor 4 [2], 0%; at P2Y purinoceptor 6 [5], 75%; on P2Y purinoceptor 2 [6], 107%. Also, the negative logarithm of the EC50 (pEC50) at P2Y purinoceptor 4 [1] was under 4.00; on P2Y purinoceptor 2 [3] it was at least 6.00; on P2Y purinoceptor 6 [4], under 6.00.

With `Cn1c(=O)ccn([C@@H]2O[C@H](COP(=O)(O)OP(=O)(O)O)[C@@H](O)[C@H]2O)c1=O`, the Activity at P2Y purinoceptor 6 [8] turned out to be 8%; at P2Y purinoceptor 2 [7], 10%; at P2Y purinoceptor 4 [2], 0%; at P2Y purinoceptor 6 [5], 121%; at P2Y purinoceptor 2 [6], 99%. In addition, the pEC50 at P2Y purinoceptor 4 [1] was under 4.00; at P2Y purinoceptor 2 [3], under 6.00; on P2Y purinoceptor 6 [4] it was under 6.00.

With `O=C(Cn1c(=O)ccn([C@@H]2O[C@H](COP(=O)(O)OP(=O)(O)O)[C@@H](O)[C@H]2O)c1=O)c1ccccc1`, the Activity on P2Y purinoceptor 2 [7] amounted to 22%; on P2Y purinoceptor 4 [2] it was 11%; on P2Y purinoceptor 2 [6], 85%. The pEC50 on P2Y purinoceptor 4 [1] is under 4.00; at P2Y purinoceptor 2 [3], under 6.00; on P2Y purinoceptor 6 [4], 7.15.

Consider `O=c1[nH]c(=O)n([C@@H]2O[C@H](COP(=O)(O)OP(=O)(O)OP(=O)(O)O)[C@@H](O)[C@H]2O)cc1Br`, for which the values for the pEC50 at P2Y purinoceptor 4 [1], on P2Y purinoceptor 2 [3] and on P2Y purinoceptor 6 [4] were 5.46, 6.46 and 6.54, respectively.

Regarding `Cn1c(=O)ccn([C@@H]2O[C@H](COP(=O)(O)OP(=O)(O)OP(=O)(O)O)[C@@H](O)[C@H]2O)c1=O`, the Activity on P2Y purinoceptor 6 [8] came to 2%; on P2Y purinoceptor 6 [5], 109%. The negative-log EC50 (pEC50) is 5.53 at P2Y purinoceptor 4 [1], 6.25 on P2Y purinoceptor 2 [3] and under 6.00 at P2Y purinoceptor 6 [4].

In the case of `Cc1cc(=O)n([C@@H]2O[C@H](COP(=O)(O)OP(=O)(O)O)[C@@H](O)[C@H]2O)c(=O)[nH]1`, the Activity on P2Y purinoceptor 6 [8] came out at 0%; at P2Y purinoceptor 2 [7], 25%; on P2Y purinoceptor 4 [2], 7%; on P2Y purinoceptor 6 [5], 108%; on P2Y purinoceptor 2 [6], 69%. Further, the values for the pEC50 at P2Y purinoceptor 4 [1], at P2Y purinoceptor 2 [3] and at P2Y purinoceptor 6 [4] were under 4.00, under 6.00 and under 6.00, respectively.

On to `CCCc1cc(=O)n([C@@H]2O[C@H](COP(=O)(O)OP(=O)(O)O)[C@@H](O)[C@H]2O)c(=O)[nH]1`, for which the outcome at P2Y purinoceptor 6 [9] was inactive. For the same compound, the figures for the negative-log EC50 (pEC50) on P2Y purinoceptor 4 [1], at P2Y purinoceptor 2 [3] and at P2Y purinoceptor 6 [4] were under 4.00, under 4.00 and under 6.00, respectively. Besides, the results for the Activity on P2Y purinoceptor 4 [2], on P2Y purinoceptor 6 [5] and at P2Y purinoceptor 2 [6] were 0%, 23% and 28%, respectively.

As to `O=c1ccn([C@@H]2O[C@H](COP(=O)(O)O)[C@@H](O)[C@H]2O)c(=S)[nH]1`, the Activity turned out to be 6% at P2Y purinoceptor 2 [7], 2% at P2Y purinoceptor 4 [2], 18% at P2Y purinoceptor 6 [5] and 51% at P2Y purinoceptor 2 [6]. For the same compound, the pEC50 on P2Y purinoceptor 4 [1] is under 4.00; on P2Y purinoceptor 2 [3], at most 4.00; at P2Y purinoceptor 6 [4], under 4.00.

Consider `CCCc1cc(=O)n([C@@H]2O[C@H](COP(=O)(O)OP(=O)(O)OP(=O)(O)O)[C@@H](O)[C@H]2O)c(=O)[nH]1`, for which the Activity was found to be 0% at P2Y purinoceptor 6 [8]; 16% on P2Y purinoceptor 2 [7]; 4% at P2Y purinoceptor 4 [2]; 23% on P2Y purinoceptor 6 [5]; 83% at P2Y purinoceptor 2 [6]. Moreover, the result on P2Y purinoceptor 6 [9], on P2Y purinoceptor 2 [10] and at P2Y purinoceptor 4 [11] was inactive. Also, the negative-log EC50 (pEC50) was under 4.00 at P2Y purinoceptor 4 [1], under 6.00 on P2Y purinoceptor 2 [3] and under 4.00 at P2Y purinoceptor 6 [4].

Take `Cc1cc(=O)n([C@@H]2O[C@H](COP(=O)(O)O)[C@@H](O)[C@H]2O)c(=O)[nH]1`: the negative logarithm of the EC50 (pEC50) at P2Y purinoceptor 4 [1], on P2Y purinoceptor 2 [3] and on P2Y purinoceptor 6 [4] was under 4.00 each time. Moreover, the Activity at P2Y purinoceptor 4 [2] is 6%; on P2Y purinoceptor 6 [5] it was 2%; at P2Y purinoceptor 2 [6], 17%.

For `O=C(Cn1c(=O)ccn([C@@H]2O[C@H](COP(=O)(O)O)[C@@H](O)[C@H]2O)c1=O)c1ccccc1`, the result at P2Y purinoceptor 6 [9], at P2Y purinoceptor 2 [10] and at P2Y purinoceptor 4 [11] was inactive. The pEC50 at P2Y purinoceptor 4 [1], at P2Y purinoceptor 2 [3] and on P2Y purinoceptor 6 [4] was under 4.00 throughout. The Activity was 2% at P2Y purinoceptor 4 [2], 16% on P2Y purinoceptor 6 [5] and 9% on P2Y purinoceptor 2 [6].

On to `O=c1ccn([C@@H]2O[C@H](COP(=O)(O)OP(=O)(O)OP(=O)(O)O)[C@@H](O)[C@H]2O)c(=S)[nH]1`, for which the values for the Activity on P2Y purinoceptor 6 [8] and on P2Y purinoceptor 6 [5] were 44% and 118%, respectively. Also, the pEC50 on P2Y purinoceptor 4 [1] is 5.75; at P2Y purinoceptor 2 [3], 7.30; at P2Y purinoceptor 6 [4], under 6.00.

For `O=c1[nH]c(=O)n([C@@H]2O[C@H](COP(=O)(O)O)[C@@H](O)[C@H]2O)cc1Br`, the Activity on P2Y purinoceptor 6 [8] turned out to be 43%; on P2Y purinoceptor 2 [7], 2%; on P2Y purinoceptor 4 [2], 21%; at P2Y purinoceptor 6 [5], 124%; at P2Y purinoceptor 2 [6], 70%. Further, the pEC50 at P2Y purinoceptor 4 [1] is under 4.00; at P2Y purinoceptor 2 [3] it was under 6.00; on P2Y purinoceptor 6 [4] it was under 6.00.

The pEC50 is −log10 of the EC50, conventionally taken in molar units.
